{"source": "patent US20260021167A1", "about": "“COMPOSITIONS AND METHODS FOR TREATING OR PREVENTING NEURODEGENERATIVE DISEASES” (Delaware State University, priority 2022, published 2026)", "molecular_target": "T1, SENP-1 on α-synuclein (Mus musculus, UniProt P59110)", "T1 construct": "from tissue; host or cells: mouse brain: midbrain and striatum, α-synuclein immunoprecipitates", "T1 sequence (P59110 1-640)": "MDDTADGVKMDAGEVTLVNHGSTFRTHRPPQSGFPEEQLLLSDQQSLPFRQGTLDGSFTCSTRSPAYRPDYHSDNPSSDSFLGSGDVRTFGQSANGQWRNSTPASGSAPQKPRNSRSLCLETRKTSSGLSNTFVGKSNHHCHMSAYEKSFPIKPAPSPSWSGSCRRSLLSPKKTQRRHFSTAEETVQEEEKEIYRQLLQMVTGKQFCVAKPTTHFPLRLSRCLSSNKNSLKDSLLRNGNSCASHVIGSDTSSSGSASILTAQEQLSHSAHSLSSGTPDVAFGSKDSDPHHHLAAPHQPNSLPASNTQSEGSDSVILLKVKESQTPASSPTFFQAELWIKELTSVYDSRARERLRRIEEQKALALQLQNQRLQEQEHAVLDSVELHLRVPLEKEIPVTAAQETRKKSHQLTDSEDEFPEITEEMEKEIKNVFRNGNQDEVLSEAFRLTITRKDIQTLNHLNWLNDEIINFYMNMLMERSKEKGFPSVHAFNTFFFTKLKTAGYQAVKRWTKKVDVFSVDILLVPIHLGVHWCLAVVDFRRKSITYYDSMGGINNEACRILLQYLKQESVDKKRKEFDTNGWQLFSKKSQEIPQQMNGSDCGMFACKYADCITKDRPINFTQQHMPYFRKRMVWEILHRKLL", "assay": "Western blot of SENP-1 on α-synuclein in α-synuclein IP tissue samples", "type": "in vivo", "settings": "PFF-injected mice, vs PFF only", "procedure": "A) In Western blots, Momordin reversed the toxicity from PFF injection in reducing phospho-α-synuclein and SENP-1 on α-synuclein in the MB and STR. […] A pathological marker, phosphorylated α-synuclein was increased by PFF injection, which was reversed by Momordin treatment in the MB (F) and the STR (G).\nA mouse model of Parkinson's disease is C57BL/6 male or female mice (50% each) injected with 5 μg of mouse PFF at 12 months old, followed by a treatment below for 6-7 weeks: • 1) without PFF injection, followed by vehicle (control, n=7); • 2) PFF injection, followed by vehicle (PFF only: control, n=8); • 3) PFF injection, followed by daily 10 mg/kg Momordin gavage (n=7-8); • 4) PFF injection, followed by daily 50 mg/kg Momordin gavage (n=7-8).", "data": [{"smiles": "CC1(C)CC[C@]2(C(=O)O)CC[C@]3(C)C(=CC[C@@H]4[C@@]5(C)CC[C@H](O[C@@H]6O[C@H](C(=O)O)[C@@H](O)[C@H](O[C@@H]7OC[C@@H](O)[C@H](O)[C@H]7O)[C@H]6O)C(C)(C)[C@@H]5CC[C@]43C)[C@@H]2C1", "note": "[Momordin lc]", "values": [{"measurement": "PFF-induced SENP-1 on α-synuclein in the MB (α-synuclein IP)", "setting": "midbrain", "value": "reduced"}, {"measurement": "PFF-induced SENP-1 on α-synuclein in the STR (α-synuclein IP)", "setting": "striatum", "value": "reduced"}]}]}
